In patent publication US10874743B2, “IRAK degraders and uses thereof” (Kymera Therapeutics, Inc., priority 2017, dated 2020):

Legend:
[1] = molecular target: T1, IRAK4 (Homo sapiens, UniProt Q9NWZ3); assay: OCI-LY-10 degradation assay (western blot, % IRAK4 degraded after 4 hours); assay type: cell-based; parameters: endogenous in cells; host or cells: OCI-LY10; settings: OCI-LY10 cells, 4 hours; for OCI-LY10 % IRAK4 Degradation (0.01 uM): 0.01 uM compound; for OCI-LY10 % IRAK4 Degradation (0.1 uM): 0.1 uM compound; for OCI-LY10 % IRAK4 Degradation (1 uM): 1 uM compound
T1 sequence (Q9NWZ3 1-460): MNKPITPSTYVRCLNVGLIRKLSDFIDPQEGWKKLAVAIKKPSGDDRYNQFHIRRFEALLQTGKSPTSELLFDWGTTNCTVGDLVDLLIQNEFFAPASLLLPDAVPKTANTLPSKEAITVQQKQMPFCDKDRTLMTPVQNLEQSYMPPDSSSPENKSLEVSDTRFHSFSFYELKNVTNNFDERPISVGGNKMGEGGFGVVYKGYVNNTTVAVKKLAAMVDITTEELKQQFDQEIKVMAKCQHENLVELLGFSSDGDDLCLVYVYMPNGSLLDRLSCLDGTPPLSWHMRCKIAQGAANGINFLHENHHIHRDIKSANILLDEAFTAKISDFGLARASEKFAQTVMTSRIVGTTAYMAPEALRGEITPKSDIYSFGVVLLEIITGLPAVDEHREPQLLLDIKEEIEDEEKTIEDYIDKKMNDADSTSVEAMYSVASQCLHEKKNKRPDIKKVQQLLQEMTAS
How it was run: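 IRAK4 loss after 4 h at 37° C was scored A (>50%), B (>20-50%) or C (<20%) from infrared western blots of RIPA lysates, 20-25 μg protein per lane. Compound was applied at 0.003-10 μM final to OCI-LY10 cells cultured in RPMI-1640 with 20% FBS and 55 μM 2-ME.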

[2] = molecular target: T1, IRAK4; assay: OCI-LY-10 MSD assay for IRAK4 DC50; assay type: cell-based; parameters: endogenous in cells; host or cells: OCI-LY10; settings: OCI-LY10 cells, 4 hr incubation, concentration required to degrade 50% of protein
How it was run: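 IRAK4 level was quantified by MSD electrochemiluminescence (anti-IRAK4 capture antibody, rabbit anti-IRAK4 detection antibody) in RIPA lysates of OCI-Ly10 cells. Cells had been treated with compound for 4 hr (8-point, 3-fold serial dilution). Remaining protein versus concentration was fitted to a sigmoidal curve to give DC50.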

Row | OCI-LY10 % IRAK4 Degradation (0.01 uM) [1] | OCI-LY10 % IRAK4 Degradation (0.1 uM) [1] | OCI-LY10 % IRAK4 Degradation (1 uM) [1] | DC50 [2] [nM] | Structure (SMILES)
1 | C (<20% degradation) | C (<20% degradation) | C (<20% degradation) | > 1000 | O=C1CCC(N2C(=O)c3cccc(CCCNCc4ccc(-n5cc(NC(=O)c6coc(-c7ccncc7)n6)c(C(F)F)n5)cc4)c3C2=O)C(=O)N1 (centres unmarked) [I-366]
2 | B (>20-50% degradation) | A (>50% degradation) | A (>50% degradation) | < 50 | CN(CCOCCOCCCc1cccc2c1C(=O)N(C1CCC(=O)NC1=O)C2=O)C(=O)c1ccc(-n2cc(NC(=O)c3coc(-c4ccnc(NCC5CC5)c4)n3)c(C(N)=O)n2)cc1 (centres unmarked) [I-224]
3 | B (>20-50% degradation) | A (>50% degradation) | A (>50% degradation) | < 50 | CN(CCOCCOCCCc1ccc2c(c1)C(=O)N(C1CCC(=O)NC1=O)C2=O)C(=O)c1ccc(-n2cc(NC(=O)c3coc(-c4ccncc4)n3)c(C(N)=O)n2)cc1 (centres unmarked) [I-227]
4 | C (<20% degradation) | A (>50% degradation) | A (>50% degradation) | 100 to 500 | O=C1CCC(N2C(=O)c3ccc(N4CCN(CCOCCNCc5ccc(-n6cc(NC(=O)c7coc(-c8ccnc(NCC9CC9)c8)n7)c(C(F)F)n6)cc5)CC4)cc3C2=O)C(=O)N1 (centres unmarked) [I-393]
5 | B (>20-50% degradation) | A (>50% degradation) | A (>50% degradation) | < 50 | Cn1c(=O)n(C2CCC(=O)NC2=O)c2ccc(CCCOCCOCCNC(=O)c3ccc(-n4cc(NC(=O)c5coc(-c6ccnc(NCC7CC7)c6)n5)c(C(F)F)n4)cc3)cc21 (centres unmarked) [I-252]
6 | B (>20-50% degradation) | A (>50% degradation) | A (>50% degradation) | < 50 | NC(=O)c1nn(-c2ccc(CNCCOCCOCCCc3cccc4c3C(=O)N(C3CCC(=O)NC3=O)C4=O)cc2)cc1NC(=O)c1coc(-c2ccnc(NCC(F)(F)F)c2)n1 (centres unmarked) [I-321]
7 | B (>20-50% degradation) | A (>50% degradation) | A (>50% degradation) | < 50 | NC(=O)c1nn(-c2ccc(C(=O)NCCOCCOCCNc3cccc4c3C(=O)N(C3CCC(=O)NC3=O)C4=O)cc2)cc1NC(=O)c1coc(-c2ccnc(N)c2)n1 (centres unmarked) [I-427]
8 | A (>50% degradation) | A (>50% degradation) | A (>50% degradation) | < 50 | CN(CCOCCOCCCc1ccc2c(c1)C(=O)N(C1CCC(=O)NC1=O)C2=O)C(=O)c1ccc(-n2cc(NC(=O)c3coc(-c4ccnc(NCC5CC5)c4)n3)c(C(N)=O)n2)cc1 (centres unmarked) [I-228]
9 | B (>20-50% degradation) | A (>50% degradation) | A (>50% degradation) | 50 to 100 | CN(CCOCCOCCCc1ccc2c(c1)C(=O)N(C1CCC(=O)NC1=O)C2=O)Cc1ccc(-n2cc(NC(=O)c3coc(-c4ccnc(NCC5CC5)c4)n3)c(C(N)=O)n2)cc1 (centres unmarked) [I-308]
10 | C (<20% degradation) | C (<20% degradation) | A (>50% degradation) | 500 to 1000 | O=C1CCC(N2C(=O)c3ccc(NC4CCN(CCOCCOCCOCCNCc5ccc(-n6cc(NC(=O)c7coc(-c8ccnc(NCC9CC9)c8)n7)c(C(F)F)n6)cc5)CC4)cc3C2=O)C(=O)N1 (centres unmarked) [I-389]
11 | B (>20-50% degradation) | A (>50% degradation) | A (>50% degradation) | < 50 | CN(CCNCCCc1ccc2c(c1)C(=O)N(C1CCC(=O)NC1=O)C2=O)C(=O)c1ccc(-n2cc(NC(=O)c3coc(-c4ccnc(NCC5CC5)c4)n3)c(C(N)=O)n2)cc1 (centres unmarked) [I-397]
12 | C (<20% degradation) | C (<20% degradation) | B (>20-50% degradation) | > 1000 | O=C1CCC(N2Cc3cc(NC4CCN(CCOCCOCCNCc5ccc(-n6cc(NC(=O)c7coc(-c8ccnc(NCC9CC9)c8)n7)c(C(F)F)n6)cc5)CC4)ccc3C2=O)C(=O)N1 (centres unmarked) [I-387]
13 | C (<20% degradation) | A (>50% degradation) | A (>50% degradation) | < 50 | NC(=O)c1nn(-c2ccc(C(=O)NCCOCCOCCCc3cccc4c3oc(=O)n4C3CCC(=O)NC3=O)cc2)cc1NC(=O)c1coc(-c2ccnc(NCC(F)(F)F)c2)n1 (centres unmarked) [I-266]
14 | C (<20% degradation) | A (>50% degradation) | B (>20-50% degradation) | 50 to 100 | O=C1CCC(N2C(=O)c3cccc(NC4CCN(CCOCCOCCNC(=O)c5ccc(-n6cc(NC(=O)c7coc(-c8ccnc(NCC9CC9)c8)n7)c(C(F)F)n6)cc5)CC4)c3C2=O)C(=O)N1 (centres unmarked) [I-267]
15 | C (<20% degradation) | C (<20% degradation) | B (>20-50% degradation) | > 1000 | O=C1CCC(N2C(=O)c3cccc(NCCOCCN4CC5(CN(CCOCCNCc6ccc(-n7cc(NC(=O)c8coc(-c9ccnc(NCC%10CC%10)c9)n8)c(C(F)F)n7)cc6)C5)C4)c3C2=O)C(=O)N1 (centres unmarked) [I-350]
16 | B (>20-50% degradation) | B (>20-50% degradation) | B (>20-50% degradation) | > 1000 | NC(=O)c1nn(-c2ccc(C(=O)NCCOCCOCCN3CCC(Nc4cccc5c4C(=O)N(C4CCC(=O)NC4=O)C5=O)CC3)cc2)cc1NC(=O)c1coc(-c2ccnc(NCC3CC3)c2)n1 (centres unmarked) [I-290]
17 | B (>20-50% degradation) | A (>50% degradation) | A (>50% degradation) | < 50 | NC(=O)c1nn(-c2ccc(CNCCOCCOCCn3c(=O)n(C4CCC(=O)NC4=O)c4ccccc43)cc2)cc1NC(=O)c1coc(-c2ccnc(NCC3CC3)c2)n1 (centres unmarked) [I-319]
18 | C (<20% degradation) | B (>20-50% degradation) | A (>50% degradation) | 100 to 500 | O=C1CCC(N2C(=O)c3ccc(NC4CCN(CCOCCOCCOCCNC(=O)c5ccc(-n6cc(NC(=O)c7coc(-c8ccnc(NCC9CC9)c8)n7)c(C(F)F)n6)cc5)CC4)cc3C2=O)C(=O)N1 (centres unmarked) [I-272]
19 | – | – | – | > 1000 | CC(C)(C)[C@H](NC(=O)COCCOCCOCCNc1cccc2c1C(=O)N(C1CCC(=O)NC1=O)C2=O)C(=O)N1C[C@H](OC(=O)[C@@H]2CCCN2)C[C@H]1C(=O)NCc1ccc(-n2cc(NC(=O)c3coc(-c4ccnc(NCC5CC5)c4)n3)c(C(F)F)n2)cc1 (stereo partly drawn) [I-286, [(3R,5S)-5-[[4-[4-[[2-[2-(cyclopropylmethylamino)-4-pyridyl]oxazole-4-carbonyl]amino]-3-(difluoromethyl)pyrazol-1-yl]phenyl]methylcarbamoyl]-1-[(2S)-2-[[2-[2-[2-[2-[[2-(2,6-dioxo-3-piperidyl)-1,3-dioxo-isoindolin-4-yl]amino]ethoxy]ethoxy]ethoxy]acetyl]amino]-3,3-dimethyl-butanoyl]pyrrolidin-3-yl](2S)-pyrrolidine-2-carboxylate]
20 | – | – | – | 100 to 500 | O=C1CCC(N2C(=O)c3cccc(N4CCN(CCOCCNC(=O)c5ccc(-n6cc(NC(=O)c7coc(-c8ccnc(NCC9CC9)c8)n7)c(C(F)F)n6)cc5)CC4)c3C2=O)C(=O)N1 (centres unmarked) [I-274]
21 | – | – | – | > 1000 | Cc1ncsc1-c1ccc(CNC(=O)[C@@H]2C[C@@H](O)CN2C(=O)[C@@H](NCCOCCOCCOCCNC(=O)C2CCC(n3cc(NC(=O)c4coc(-c5ccnc(NCC(F)(F)F)c5)n4)c(C(N)=O)n3)CC2)C(C)(C)C)cc1 (some centres unmarked) [I-293]
22 | – | – | – | > 1000 | O=C1CCC(N2C(=O)c3cccc(NCCOCCOCCOCC(=O)N4C[C@H](OC(=O)[C@@H]5CCCN5)C[C@H]4C(=O)NCc4ccc(-n5cc(NC(=O)c6coc(-c7ccnc(NCC8CC8)c7)n6)c(C(F)F)n5)cc4)c3C2=O)C(=O)N1 (some centres unmarked) [I-289]
23 | – | – | – | 500 to 1000 | O=C1CCC(N2Cc3c(NC4CCN(CCOCCOCCNCc5ccc(-n6cc(NC(=O)c7coc(-c8ccnc(NCC9CC9)c8)n7)c(C(F)F)n6)cc5)CC4)cccc3C2=O)C(=O)N1 (centres unmarked) [I-384]
